How the values were obtained:
Assay type in all cases: ADME
Liver microsome [1] = assay: Drug metabolism in human liver microsomes assessed as metabolite formation at 20 uM after 30 mins by LC/MS analysis in presence of NADPH and docetaxel; details: 0.5 h
[2] = Drug metabolism in dexamethasone treated CD1 mouse liver microsomes assessed as metabolite formation at 20 uM after 30 mins by LC/MS analysis in presence of NADPH and CYP2B inhibitor orphenadrine; details: 0.5 h
[3] = Drug metabolism in prednisone treated CD1 mouse liver microsomes assessed as metabolite formation at 20 uM after 30 mins by LC/MS analysis in presence of NADPH and CYP1A1 inhibitor alpha-naphthoflavone; details: 0.5 h
[4] = Drug metabolism in CD1 mouse liver microsomes assessed as depletion of parent compound at 1 uM after 30 mins by LC/MS analysis in presence of NADPH; details: 0.5 h
[5] = Drug metabolism in dexamethasone treated CD1 mouse liver microsomes assessed as 1alpha,24S,25(OH)3D3 metabolite formation at 20 uM after 30 mins by LC/MS analysis in presence of NADPH; details: 0.5 h
[6] = Drug metabolism in CD1 mouse liver microsomes assessed as metabolite formation at 20 uM after 30 mins by LC/MS analysis in presence of NADPH and CYP2B inhibitor orphenadrine; details: 0.5 h
[7] = Drug metabolism in prednisone treated CD1 mouse liver microsomes assessed as metabolite formation at 20 uM after 30 mins by LC/MS analysis in presence of NADPH and CYP2C inhibitor sulfaphenazole; details: 0.5 h
[8] = Drug metabolism in prednisone treated CD1 mouse liver microsomes assessed as metabolite formation at 20 uM after 30 mins by LC/MS analysis in presence of NADPH and CYP2A inhibitor 8-methoxypsoralen; details: 0.5 h
[9] = Drug metabolism in prednisone treated CD1 mouse liver microsomes assessed as metabolite formation at 20 uM after 30 mins by LC/MS analysis in presence of NADPH and CYP1A2 inhibitor furafyline; details: 0.5 h
Liver microsome [10] = assay: Drug metabolism in human liver microsomes assessed as metabolite formation at 20 uM after 30 mins by LC/MS analysis in presence of NADPH and tamoxifen; details: 0.5 h
[11] = Drug metabolism in prednisone treated CD1 mouse liver microsomes assessed as 1alpha,23R,25(OH)3D3 metabolite formation at 20 uM after 30 mins by LC/MS analysis in presence of NADPH; details: 0.5 h
[12] = Drug metabolism in dexamethasone treated CD1 mouse liver microsomes assessed as depletion of parent compound at 1 uM after 30 mins by LC/MS analysis in presence of NADPH; details: liver microsomes from dexamethasone-treated mice, read-out: Drug metabolism
[13] = Drug metabolism in CD1 mouse liver microsomes assessed as metabolite formation at 20 uM after 30 mins by LC/MS analysis in presence of NADPH and CYP1A2 inhibitor furafyline; details: 0.5 h
[14] = Drug metabolism in CD1 mouse liver microsomes assessed as metabolite formation at 20 uM after 30 mins by LC/MS analysis in presence of NADPH and CYP450 inhibitor SKF525A; details: 0.5 h
[15] = Drug metabolism in CD1 mouse liver microsomes assessed as metabolite formation at 20 uM after 30 mins by LC/MS analysis in presence of NADPH and CYP2E inhibitor di-ethyldithiocarbamate; details: 0.5 h
[16] = Drug metabolism in prednisone treated CD1 mouse liver microsomes assessed as depletion of parent compound at 1 uM after 30 mins by LC/MS analysis in presence of NADPH; details: 0.5 h
[17] = Drug metabolism in prednisone treated CD1 mouse liver microsomes assessed as 1alpha,23S,25(OH)3D3 metabolite formation at 20 uM after 30 mins by LC/MS analysis in presence of NADPH; details: 0.5 h
[18] = Drug metabolism in dexamethasone treated CD1 mouse liver microsomes assessed as 1alpha,23R,25(OH)3D3 metabolite formation at 20 uM after 30 mins by LC/MS analysis in presence of NADPH; details: 0.5 h
[19] = Drug metabolism in prednisone treated CD1 mouse liver microsomes assessed as 1alpha,24R,25(OH)3D3 metabolite formation at 20 uM after 30 mins by LC/MS analysis in presence of NADPH; details: 0.5 h
[20] = Drug metabolism in prednisone treated CD1 mouse liver microsomes assessed as metabolite formation at 20 uM after 30 mins by LC/MS analysis in presence of NADPH and CYP450 inhibitor SKF525A; details: 0.5 h
[21] = Drug metabolism in prednisone treated CD1 mouse liver microsomes assessed as metabolite formation at 20 uM after 30 mins by LC/MS analysis in presence of NADPH and CYP2D inhibitor quinine; details: 0.5 h
[22] = Drug metabolism in CD1 mouse liver microsomes assessed as metabolite formation at 20 uM after 30 mins by LC/MS analysis in presence of NADPH and CYP2D inhibitor quinine; details: 0.5 h
[23] = Drug metabolism in dexamethasone treated CD1 mouse liver microsomes assessed as metabolite formation at 20 uM after 30 mins by LC/MS analysis in presence of NADPH and CYP2A inhibitor 8-methoxypsoralen; details: 0.5 h
[24] = Drug metabolism in prednisone treated CD1 mouse liver microsomes assessed as 1alpha,24S,25(OH)3D3 metabolite formation at 20 uM after 30 mins by LC/MS analysis in presence of NADPH; details: 0.5 h
[25] = Drug metabolism in CD1 mouse liver microsomes assessed as metabolite formation at 20 uM after 30 mins by LC/MS analysis in presence of NADPH and CYP2C inhibitor sulfaphenazole; details: 0.5 h
Liver microsome [26] = assay: Drug metabolism in human liver microsomes assessed as assessed as metabolite formation at 20 uM after 30 mins by LC/MS analysis in presence of NADPH; details: 0.5 h
Liver microsome [27] = assay: Drug metabolism in human liver microsomes assessed as metabolite formation at 20 uM after 30 mins by LC/MS analysis in presence of NADPH and ketoconazole; details: 0.5 h
[28] = Drug metabolism in dexamethasone treated CD1 mouse liver microsomes assessed as metabolite formation at 20 uM after 30 mins by LC/MS analysis in presence of NADPH and CYP2D inhibitor quinine; details: 0.5 h
[29] = Drug metabolism in dexamethasone treated CD1 mouse liver microsomes assessed as metabolite formation at 20 uM after 30 mins by LC/MS analysis in presence of NADPH and CYP2C inhibitor sulfaphenazole; details: 0.5 h
[30] = Drug metabolism in CD1 mouse liver microsomes assessed as metabolite formation at 20 uM after 30 mins by LC/MS analysis in presence of NADPH and CYP2A inhibitor 8-methoxypsoralen; details: 0.5 h
[31] = Drug metabolism in prednisone treated CD1 mouse liver microsomes assessed as metabolite formation at 20 uM after 30 mins by LC/MS analysis in presence of NADPH and CYP2B inhibitor orphenadrine; details: 0.5 h
Liver microsome [32] = assay: Drug metabolism in human liver microsomes assessed as metabolite formation at 20 uM after 30 mins by LC/MS analysis in presence of NADPH and paclitaxel; details: 0.5 h
[33] = Drug metabolism in dexamethasone treated CD1 mouse liver microsomes assessed as metabolite formation at 20 uM after 30 mins by LC/MS analysis in presence of NADPH and CYP1A1 inhibitor alpha-naphthoflavone; details: 0.5 h
Liver microsome [34] = assay: Drug metabolism in human liver microsomes assessed as metabolite formation at 20 uM after 30 mins by LC/MS analysis in presence of NADPH and ritonavir; details: 0.5 h
[35] = Drug metabolism in dexamethasone treated CD1 mouse liver microsomes assessed as metabolite formation at 20 uM after 30 mins by LC/MS analysis in presence of NADPH and CYP2E inhibitor di-ethyldithiocarbamate; details: 0.5 h
[36] = Drug metabolism in CD1 mouse liver microsomes assessed as metabolite formation at 20 uM after 30 mins by LC/MS analysis in presence of NADPH and CYP1A1 inhibitor alpha-naphthoflavone; details: 0.5 h
[37] = Drug metabolism in dexamethasone treated CD1 mouse liver microsomes assessed as metabolite formation at 20 uM after 30 mins by LC/MS analysis in presence of NADPH and CYP450 inhibitor SKF525A; details: 0.5 h
[38] = Drug metabolism in prednisone treated CD1 mouse liver microsomes assessed as metabolite formation at 20 uM after 30 mins by LC/MS analysis in presence of NADPH and CYP2E inhibitor di-ethyldithiocarbamate; details: 0.5 h
[39] = Drug metabolism in dexamethasone treated CD1 mouse liver microsomes assessed as metabolite formation at 20 uM after 30 mins by LC/MS analysis in presence of NADPH and CYP1A2 inhibitor furafyline; details: 0.5 h

C=C1/C(=C\C=C2/CCC[C@]3(C)[C@@H]([C@H](C)CCCC(C)(C)O)CC[C@@H]23)C[C@@H](O)C[C@@H]1O [CALCITRIOL]
Drug metabolism (Liver microsome [1]): metabolite_not_detected
Drug metabolism [2]: metabolite_detected
Drug metabolism [3]: metabolite_detected
Drug metabolism [4]: metabolite_not_detected
Drug metabolism [5]: metabolite_detected
Drug metabolism [6]: metabolite_detected
Drug metabolism [7]: metabolite_detected
Drug metabolism [8]: metabolite_detected
Drug metabolism [9]: metabolite_detected
Drug metabolism (Liver microsome [10]): metabolite_not_detected
Drug metabolism [11]: metabolite_detected
metabolised at 0.5 h, 1 µM [12]: 70%
Drug metabolism [13]: metabolite_detected
Drug metabolism [14]: metabolite_not_detected
Drug metabolism [15]: metabolite_detected
Drug metabolism [16]: metabolite_not_detected
Drug metabolism [17]: metabolite_detected
Drug metabolism [18]: metabolite_detected
Drug metabolism [19]: metabolite_detected
Drug metabolism [20]: metabolite_not_detected
Drug metabolism [21]: metabolite_detected
Drug metabolism [22]: metabolite_detected
Drug metabolism [23]: metabolite_detected
Drug metabolism [24]: metabolite_detected
Drug metabolism [25]: metabolite_detected
Drug metabolism (Liver microsome [26]): metabolite_detected
Drug metabolism (Liver microsome [27]): metabolite_not_detected
Drug metabolism [28]: metabolite_detected
Drug metabolism [29]: metabolite_detected
Drug metabolism [30]: metabolite_detected
Drug metabolism [31]: metabolite_detected
Drug metabolism (Liver microsome [32]): metabolite_not_detected
Drug metabolism [33]: metabolite_detected
Drug metabolism (Liver microsome [34]): metabolite_not_detected
Drug metabolism [35]: metabolite_detected
Drug metabolism [36]: metabolite_detected
Drug metabolism [37]: metabolite_not_detected
Drug metabolism [38]: metabolite_detected
Drug metabolism [39]: metabolite_detected
